# From the METLIN SMRT retention time set (Domingo-Almenara et al. 2019)
# Experiment: gradient 5% acetonitrile 3 min, to 50% in 2 min, to 85% in 15 min, held 3 min, 100 µL/min
# Conditions: column: Zorbax Extend-C18 2.1 x 50 mm; eluents: water / acetonitrile, 0.1% formic acid
# How it was run: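 A Zorbax Extend-C18 column (2.1 × 50 mm, 1.8 μm) run at 100 μL/min with water and acetonitrile, both containing 0.1% formic acid, separated mixtures of ~100 pure standards. The HPLC was coupled to a quadrupole time-of-flight mass spectrometer operated in positive and negative ionization mode, with dead and dwell volumes of 40 μL and 900 μL. Each retention time was taken from a computationally picked adduct peak that was then manually inspected.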
row,RP-LC retention time [s],Structure (SMILES)
1,796,CCc1noc(NC(C)=O)c1-c1ccc(OC)c(S(=O)(=O)Nc2ccc(F)cc2C)c1
2,1140,Cc1ccc(Oc2nccnc2SCC(=O)Nc2ccc(C)c(C)c2)cc1
3,981,Cn1nc(-c2nnc(-c3ccccc3)o2)c2c1CCN(S(=O)(=O)c1cccc(C(F)(F)F)c1)C2
4,972,CCS(=O)(=O)c1nc2ccc(NS(=O)(=O)c3cc(C)c(C)cc3C)cc2s1
5,731,O=C(CC1CCCCC1)Nc1cccc(-c2nnc3n2CCCC3)c1
6,812,Cc1noc(C)c1-c1ccc(S(=O)(=O)NC(C)C)cc1
7,849,Cn1c(=O)n(C)c2cc(Sc3ccccc3)c(NC(=O)C3CC3)cc21
8,672,O=C(Cn1ncc2c(c1=O)N(C1CC1)C(=O)CS2)NC1CCCCC1
9,627,NC(=O)C1CCN(C(=O)CSc2nc3ccccc3s2)CC1
10,786,CC1CCCN(C(=O)C2CC(=O)N(c3ccccc3)C2)C1 (stereo not given)
11,894,CCCn1c(=O)c(-c2ccc(C(=O)NC(C)C)cc2)nc2cccnc21
12,900,Cc1oc(C2CCN(S(=O)(=O)c3ccc(C(F)(F)F)cc3)CC2)nc1C(=O)N(C)C
13,544,O=C(CC1CCNCC1)N1CCC(CCOc2cccnc2)CC1
14,716,Cc1nnc(N2CCCC(C(=O)NCc3cccc(F)c3)C2)c2nn(-c3ccccc3)c(C)c12 (stereo not given)
15,806,Cc1ccc(S(=O)(=O)N2CCC3(CC2)CC(C)(O)CCO3)cc1 (stereo not given)
16,621,Cc1cccc(CN2CCCn3nc(C(=O)NCCN4CCOCC4)cc3C2=O)c1
17,738,Cc1ccc(NC(=O)N2CCC(OC3CCN(S(C)(=O)=O)CC3)CC2)cc1
18,808,CCc1noc(NC(C)=O)c1-c1ccc(C)c(S(=O)(=O)NC2CCCC2)c1
19,607,CCCN1CCN(c2cc(C(=O)O)c3cc(NS(=O)(=O)c4cccc(C)c4)ccc3n2)CC1
20,658,Cc1ccc(NC(=O)N2CCC(N3CCN(Cc4ccccn4)C(=O)C3=O)CC2)cc1Cl
21,1060,O=S(=O)(c1cc(-c2nnc(C3CC3)o2)co1)N1CCN(c2cccc(Cl)c2)CC1

row,RP-LC retention time [s],Structure (SMILES)
1,674,CC(C)CN1C(=O)c2cccn2CC1C(=O)N1CCCC1 (stereo not given)
2,601,Cc1cc(C)c(S(=O)(=O)N(CCN2CCCCC2C)CC(=O)N2CCNCC2)c(C)c1 (stereo not given)
3,558,CCN1CCC2(CC1)OC(=O)C(C)=C2C(=O)NCc1ccc(C)cc1
4,1210,CCN(CC)c1nc2cc(C(=O)OC)ccc2c(=O)n1-c1ccc(C)cc1
5,718,CCn1nc(-c2ccc(C)c(S(=O)(=O)N3CCC(C(N)=O)CC3)c2)c2c(c1=O)CCCC2
6,1010,CCC(=O)N1CCc2sc(S(=O)(=O)N3CCN(c4cccc(C)c4)CC3)cc2C1
7,921,N#Cc1ccc(C(=O)N2CCCC2c2nc(-c3ccc(F)cc3F)no2)cc1 (stereo not given)
8,643,CCc1nc(N)n(CC(=O)Nc2cc(C)ccc2C)c(=O)c1C
9,729,CCN1CCn2cc(S(=O)(=O)Nc3cccc(C)c3C)cc2C1=O
10,525,CCN1CCN(C(=O)C2CCN(CCc3cn(CC)c4ncccc34)CC2)CC1
11,680,Cc1cnc(-c2ccccc2)n1C1CCN(S(=O)(=O)c2ccc(C#N)cc2)C1 (stereo not given)
12,664,CCN1CCN(C(=O)C2CCN(S(=O)(=O)c3ccc4c(c3)NC(=O)CO4)CC2)CC1
13,735,CCCCNC(=O)C1CCCN(c2ccc(-c3ccc(C)c(C)c3)nn2)C1 (stereo not given)
14,1020,CCc1ccc(S(=O)(=O)N2CCc3c(c(-c4nc(C5CC5)no4)nn3C)C2)cc1
15,618,CC(C)(C)NC(=O)N1CCCN(C2CCN(Cc3ccccc3)C2=O)CC1 (stereo not given)
16,625,CC1CCN(c2ncc3c(n2)CCC(C(=O)NCc2nc4ccccc4n2C)C3)CC1 (stereo not given)
17,746,O=C(c1ccc2c(c1)OCO2)N1CCN(Cc2nnnn2-c2ccc(F)c(F)c2)CC1
18,1230,CCn1c(C(=O)Nc2cc(C)ccc2C)cc2sc(Cl)cc21
19,1150,CCN1C(=O)COc2ccc(-c3nc(NC(=O)c4cccc(Br)c4)sc3C)cc21
20,627,O=C(Nc1ccccc1F)N1C[C@H]2C[C@H](C1)[C@H]1CCCC(=O)N1C2
21,848,COc1ccccc1N1CCN(Cc2nc(-c3ccc(N4CCCC(C)C4)nc3)no2)CC1 (stereo not given)

# The remaining lines, values behind:
row,Structure (SMILES),RP-LC retention time [s]
1,NC(=O)Cc1csc(NC(=O)c2coc(NC(=O)c3ccccc3)n2)n1,586
2,Cc1cnc(C(=O)N2CCC(c3noc(-c4cccnc4)n3)C2)cn1 (stereo not given),628
3,Cc1cn(C)nc1C(=O)Nc1nnc(-c2cccs2)o1,647
4,Cc1ccc(C)c(CNc2nc3ccncc3n(Cc3ccccc3)c2=O)c1,798
5,Cc1c(-c2ccccc2)n(O)[n+]([O-])c1-c1ccccc1,1020
6,O=c1c2cc(-c3ccccc3Cl)nn2cnn1Cc1nc(-c2ccccc2)no1,1110
7,COc1cc(-c2nc3ccc(Cl)cn3c2Nc2ccccc2C)ccc1O,720
8,COc1ccc(Nc2c(-c3ccc(SC)cc3)nc3cnc(Br)cn23)cc1OC,934
9,O=C1CC(c2noc(-c3cccc(OC(F)(F)F)c3)n2)CN1c1ccc(F)c(Cl)c1 (stereo not given),1210
10,CC(C)n1nnc2cc(C(=O)N(C)CC(=O)Nc3cccc(Br)c3)ccc21,805
11,COc1cc(-c2noc(-c3nc(-c4ccccc4)no3)n2)cc(OC)c1OC,1070
12,O=C(NCCc1nnc2ccc(SCc3ccccn3)nn12)c1ccccc1,575
13,Cc1ccccc1-n1c(-c2ccc(Cl)cc2)cn2c3c(=O)n(C)c(=O)n(C)c3nc12,1020
14,Cc1ccc(C)c(-c2csc(NC(=O)c3cccs3)n2)c1,1040
15,O=C(NCc1cccnc1)C1c2ccccc2C(=O)N1Cc1ccccc1 (stereo not given),604
16,CCOc1ccccc1OCc1nn2c(COc3ccc(F)cc3)nnc2s1,1000
17,CCCCN(CC)c1nc(-c2ccc(C)cc2)nc2ccccc12,941
18,Cc1ccccc1-c1nnc(CSc2nnc(NC(=O)c3ccccc3C(F)(F)F)s2)o1,972
19,Fc1cnccc1CN1CC2(CCCCC2)CC1COc1ccncc1 (stereo not given),747
20,CCc1cc(C(=O)Nc2ccccc2OC)nc2ccnn12,1090
21,CN(C)C(CNC(=O)c1cc(=O)c2cc(Cl)ccc2o1)c1cccs1 (stereo not given),631
22,O=C(Nc1ccccc1F)c1c(O)c2cccnc2n(-c2cccc(F)c2)c1=O,1250
23,O=C(c1nnc(-c2ccc(S(=O)(=O)N3CCOCC3)cc2)o1)N1CCC2(CC1)OCCO2,730
24,COc1cccc2nc(NC(=O)c3ccc(Br)s3)sc12,990

row,Structure (SMILES),RP-LC retention time [s]
1,COc1ccc(Cl)cc1C(=O)Nc1ccc(-c2nc(C)no2)cc1,719
2,Cc1ccc2c(c1)NC(=O)c1cc(NC(=O)c3ccno3)ccc1O2,719
3,COCCNC(=O)N(C)CCc1noc(COc2ccc(Cl)cc2)n1,747
4,O=C(CSCc1ccccc1)N1CC(c2nc3ccccc3[nH]2)C1,573
5,COc1ccccc1-c1csc(NC(=O)c2sc(C)nc2C)n1,900
6,O=C(c1nccc2ccccc12)N1CCc2cc(-c3ccno3)ccc21,1000
7,O=C(Cn1c(=O)c(=O)n(Cc2ccccc2)c2ncccc21)NCCc1ccco1,797
8,O=C(NCCn1nc(-c2cccs2)ccc1=O)c1cc(-c2cccs2)[nH]n1,573
9,COc1cc(NC(=O)c2ccccc2)c(OC)cc1NC(=O)C=C(C)C,887
10,O=C(Cc1cccs1)NC1CCCN(c2cc(-c3ccc(F)cc3)[nH]n2)C1 (stereo not given),784
11,COc1ccccc1-c1noc(Cn2c(=O)n(-c3ccccc3C)c(=O)c3sccc32)n1,910
12,CCOc1ccc(-c2csc(Nc3ccc(C)cn3)n2)cc1,949
13,Cc1nnc2ccc(NC(C)C)nn12,676
14,COc1ccc(-c2nc(-c3nnn(-c4ccccc4)c3C)no2)cc1OC,892
15,CC1(C)CC(=O)c2c(O)cc(OCC(=O)O)cc2O1,738
16,c1ccc(COCCc2noc(C3CN(Cc4ccccc4)C3)n2)cc1,693
17,COCCN1C(=O)CCc2cc(NC(=O)Cc3ccc(Cl)cc3)ccc21,806
18,CCCC(=O)Nc1ccc2c(c1)CN(C(=O)Cc1ccc(F)cc1)C(C(=O)N(C)C)C2 (stereo not given),672
19,O=C(Nc1ccc(OCc2nnc(-c3ccccc3)o2)cc1)C1CCC1,878
20,CCOc1ccc(-c2noc(Cc3nc(-c4ccc(C)cc4)cs3)n2)cc1,1320
21,COc1cc(OC)cc(C(=O)N2CCC3(CC2)N=C(c2ccccc2)NO3)c1,810
22,CC(C)CCNC(=O)CC1Sc2ncccc2N(CC(C)C)C1=O (stereo not given),868
23,COc1cc(OC)cc(-c2nc(-c3ccc4c(c3)oc(=O)n4C(C)C)no2)c1,1080
24,CCn1cc(C(=O)Nc2ccc(C)cc2C)c2cccnc21,962
